PubChem BioAssay (NCI)
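Growth conditions: 96-well plates. Treatment: test compound, 48 hours, 5 concentrations. Analysis: linear interpolation between bracketing concentrations; unreached endpoints set to highest concentration. The concentration for 50% growth inhibition is given as GI50. TGI: total growth inhibition.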

Key:
Assay in all cases: growth of human tumour cells (NCI), 48 h
CCRF-CEM leukemia = tested on: CCRF-CEM leukemia
DMS 273 small cell lung = tested on: DMS 273 small cell lung
HCT-15 colon = tested on: HCT-15 colon
HL-60(TB) leukemia = tested on: HL-60(TB) leukemia
IGROV1 ovarian = tested on: IGROV1 ovarian
K-562 leukemia = tested on: K-562 leukemia
LXFL 529 NSCLC = tested on: LXFL 529 NSCLC
SR leukemia = tested on: SR leukemia
SW-620 colon = tested on: SW-620 colon
TK-10 renal = tested on: TK-10 renal

Structure (SMILES)	TGI (CCRF-CEM leukemia)	TGI (DMS 273 small cell lung)	TGI (HCT-15 colon)	TGI (HL-60(TB) leukemia)	TGI (IGROV1 ovarian)	TGI (K-562 leukemia)	TGI (LXFL 529 NSCLC)	TGI (SR leukemia)	TGI (SW-620 colon)	TGI (TK-10 renal)	GI50 (IGROV1 ovarian)	GI50 (LXFL 529 NSCLC)	GI50 (TK-10 renal)	GI50 (CCRF-CEM leukemia)	GI50 (DMS 273 small cell lung)	GI50 (HCT-15 colon)	GI50 (HL-60(TB) leukemia)	GI50 (K-562 leukemia)	GI50 (SW-620 colon)
COC(=O)C12C3C4C1C1C2C3C41C(=O)N(C(C)C)C(C)C (centres undefined)	> 100 µM	> 100 µM	> 100 µM	> 100 µM	> 100 µM	> 100 µM	> 100 µM	> 100 µM	> 100 µM	> 100 µM	–	–	–	–	–	–	–	–	–
CCC1(CC)C(=O)[N-]C(=O)[N-]C1=O.[Au+].[Au+].c1ccc([PH+](c2ccccc2)c2ccccc2)cc1.c1ccc([PH+](c2ccccc2)c2ccccc2)cc1	–	–	–	–	2.3 µM	–	0.323 µM	–	–	3.18 µM	1.03 µM	0.153 µM	1.79 µM	–	–	–	–	–	–
O=C1C2=C(c3ccccc31)C(c1ccc(F)cc1)N1C(=O)CCSC1=N2 (centres undefined)	> 100 µM	> 100 µM	> 100 µM	> 100 µM	> 100 µM	> 100 µM	> 100 µM	–	> 100 µM	> 100 µM	–	–	–	–	–	–	–	–	–
CN/N=C(\C(=O)Nc1ccc([N+](=O)[O-])cc1[N+](=O)[O-])C1NC(=O)NC1=O (centres undefined)	> 100 µM	> 100 µM	> 100 µM	> 100 µM	> 100 µM	> 100 µM	> 100 µM	> 100 µM	> 100 µM	> 100 µM	–	–	–	–	–	–	–	–	–
Cc1cc(Cl)ccc1NC(=O)CCCC(=O)C(C(=O)c1ccccc1)c1ccccc1 (centres undefined)	> 100 µM	> 100 µM	> 100 µM	> 100 µM	> 100 µM	> 100 µM	> 100 µM	–	–	–	–	–	–	–	–	–	–	–	–
Cc1ccc(SCC(O)=C2C(=O)CCCC2=O)cc1	> 100 µM	> 100 µM	> 100 µM	> 100 µM	> 100 µM	> 100 µM	> 100 µM	> 100 µM	> 100 µM	> 100 µM	–	–	–	–	–	–	–	–	–
C[C@@H](c1ccccc1)N(CC#N)C1CCC[C@H]1O (some centres undefined)	> 100 µM	> 100 µM	> 100 µM	> 100 µM	> 100 µM	> 100 µM	–	–	> 100 µM	> 100 µM	–	–	–	–	–	–	–	–	–
C/C=C/C(=O)[O-].N.N.N.N.N.[Co+3].[O-][Cl+3]([O-])([O-])[O-]	> 100 µM	> 100 µM	> 100 µM	> 100 µM	> 100 µM	> 100 µM	> 100 µM	–	> 100 µM	> 100 µM	> 100 µM	> 100 µM	> 100 µM	> 100 µM	> 100 µM	> 100 µM	> 100 µM	> 100 µM	> 100 µM
Cc1ccc(C)c2c1CCc1cc3ccccc3nc1-2	> 100 µM	–	> 100 µM	–	> 100 µM	> 100 µM	> 100 µM	–	> 100 µM	> 100 µM	–	–	–	–	–	–	–	–	–
O=c1cccccc1NCCNc1cccccc1=O	> 100 µM	> 100 µM	> 100 µM	> 100 µM	> 100 µM	> 100 µM	> 100 µM	> 100 µM	> 100 µM	–	–	–	–	–	–	–	–	–	–
O=C1C2=C(c3ccccc31)C(c1ccc(Cl)cc1)NC(=S)N2 (centres undefined)	54.6 µM	42.8 µM	35.9 µM	37.8 µM	42.6 µM	40.2 µM	29.5 µM	–	40.5 µM	48.9 µM	–	–	–	–	–	–	–	–	–
CNC(C)Cc1ccc(O)cc1 (centres undefined)	> 100 µM	> 100 µM	> 100 µM	> 100 µM	> 100 µM	> 100 µM	> 100 µM	> 100 µM	> 100 µM	> 100 µM	–	–	–	–	–	–	–	–	–
CC(=O)OCC(OC(C)=O)C(OC(C)=O)C(OC(C)=O)C(=O)CNn1c(-c2ccccc2Cl)nc2ccc(Br)cc2c1=O (centres undefined)	> 100 µM	> 100 µM	> 100 µM	90.1 µM	–	> 100 µM	> 100 µM	> 100 µM	> 100 µM	–	–	–	–	–	–	–	–	–	–
[N-]=[N+]=Nc1c(Br)c(=O)[nH]c(=O)n1COCCO	> 100 µM	> 100 µM	–	> 100 µM	> 100 µM	> 100 µM	> 100 µM	> 100 µM	> 100 µM	> 100 µM	–	–	–	–	–	–	–	–	–
COc1cc(C(=O)C/C(CCC(=O)Nc2ccc(Cl)cc2Cl)=N/Nc2nnc(C)n2N)ccc1O	> 100 µM	> 100 µM	> 100 µM	> 100 µM	> 100 µM	–	> 100 µM	> 100 µM	> 100 µM	> 100 µM	–	–	–	–	–	–	–	–	–
COc1cccc2ccc3c(c12)C(=O)OC31CCc2c(C)cccc21 (centres undefined)	> 100 µM	> 31.6 µM	> 46.4 µM	32.9 µM	> 46.4 µM	89.5 µM	> 31.6 µM	18.4 µM	> 46.4 µM	> 100 µM	–	–	–	–	–	–	–	–	–
COC(=O)C1=C(c2cc(OC)c(OC)c(OC)c2)O[C@H](c2ccc3c(c2)OCO3)[C@H]1COC(C)=O	> 100 µM	> 100 µM	> 100 µM	40.3 µM	> 100 µM	91.8 µM	69.2 µM	72.6 µM	> 100 µM	> 100 µM	–	–	–	–	–	–	–	–	–
O=C(O)Cc1cc(=O)[nH]c2c1C(=O)CCC2	> 100 µM	> 100 µM	> 100 µM	> 100 µM	> 100 µM	> 100 µM	> 100 µM	> 100 µM	> 100 µM	> 100 µM	–	–	–	–	–	–	–	–	–
